These results are taken from ChEMBL document CHEMBL1147146, “Cells lacking DNA topoisomerase II beta are resistant to genistein” (J Nat Prod, 2007).

The source made the active and inactive calls. The calls are words filed in the database; no cut-off is given here.

The target in assay [1] is T1, DNA topoisomerase 1 (Homo sapiens) (UniProt P11387).
T1 sequence (whole entry): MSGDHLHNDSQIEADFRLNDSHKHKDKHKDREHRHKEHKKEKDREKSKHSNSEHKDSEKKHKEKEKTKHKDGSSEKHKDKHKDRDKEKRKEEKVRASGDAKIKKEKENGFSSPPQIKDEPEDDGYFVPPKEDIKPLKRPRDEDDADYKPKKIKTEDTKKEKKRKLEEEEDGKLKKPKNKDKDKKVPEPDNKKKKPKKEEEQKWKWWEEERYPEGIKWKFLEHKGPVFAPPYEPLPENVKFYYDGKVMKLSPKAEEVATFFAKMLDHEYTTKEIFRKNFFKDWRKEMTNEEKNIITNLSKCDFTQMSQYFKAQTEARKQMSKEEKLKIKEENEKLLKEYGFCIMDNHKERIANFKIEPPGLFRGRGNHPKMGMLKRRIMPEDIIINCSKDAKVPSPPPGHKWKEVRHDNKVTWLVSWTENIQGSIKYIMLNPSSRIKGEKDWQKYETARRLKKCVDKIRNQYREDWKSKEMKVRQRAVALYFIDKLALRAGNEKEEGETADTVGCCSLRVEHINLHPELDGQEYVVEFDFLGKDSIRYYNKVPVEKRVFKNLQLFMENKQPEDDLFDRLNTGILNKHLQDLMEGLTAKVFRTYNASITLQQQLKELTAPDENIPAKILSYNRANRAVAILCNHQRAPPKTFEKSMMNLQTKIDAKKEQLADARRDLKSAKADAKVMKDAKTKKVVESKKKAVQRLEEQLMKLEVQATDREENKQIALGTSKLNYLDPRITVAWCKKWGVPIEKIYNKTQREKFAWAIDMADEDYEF
The note with it: K562.
Description: Induction of topoisomerase 1-DNA complexes in K562 cells assessed as integrated green fluorescence at 10 times their IC50 after 2 hrs by TARDIS assay

For assay [2], the target named is T1, DNA topoisomerase 1 (Homo sapiens). The note with it: K562. This is another data set of the same source.
Description: Induction of topoisomerase 1-DNA complexes in K562 cells assessed as integrated green fluorescence at 10 times their IC50 after 8 hrs by TARDIS assay
For assay [3] the target is unchanged. The note with it: K562, 10 uM.
Description: Induction of topoisomerase 1-DNA complexes in K562 cells assessed as integrated green fluorescence at 10 uM after 1 hr by TARDIS assay
Assay [4] has the same target. Particulars: K562. The source holds these as a separate data set.
Description: Induction of topoisomerase 1-DNA complexes in K562 cells assessed as integrated green fluorescence at 10 times their IC50 after 24 hrs by TARDIS assay
The target of assay [5] is DNA topoisomerase 2-alpha (Homo sapiens) (UniProt P11388). Particulars: K562, 10 uM.
Description: Induction of human recombinant topoisomerase 2-DNA complexes in K562 cells assessed as integrated green fluorescence at 10 uM after 2 hrs by TARDIS assay
For assay [6] the target is unchanged. Particulars: K562.
Description: Induction of human recombinant topoisomerase 2-DNA complexes in K562 cells assessed as integrated green fluorescence at 10 times their IC50 after 8 hrs by TARDIS assay
For assay [7] the target is unchanged. The note with it: K562. This is another data set of the same source.
Description: Induction of human recombinant topoisomerase 2-DNA complexes in K562 cells assessed as integrated green fluorescence at 10 times their IC50 after 24 hrs by TARDIS assay
The target in assay [8] is DNA topoisomerase 2-beta (Homo sapiens) (UniProt Q02880). Nature of the assay: Induction of human recombinant topoisomerase 2beta-DNA complex in K562 cells assessed as integrated fluorescence at 10 uM after 2 hrs by TARDIS assay. Format: cell-based.
The target in assay [9] is DNA topoisomerase 2-alpha (Homo sapiens) (UniProt P11388). Particulars: K562. The source holds these as a separate data set.
Description: Induction of human recombinant topoisomerase 2-DNA complexes in K562 cells assessed as integrated green fluorescence at 10 times their IC50 after 2 hrs by TARDIS assay
The target is the same in assay [10]. Nature of the assay: Induction of human recombinant topoisomerase 2-DNA complexes in K562 cells assessed as integrated green fluorescence at 175 uM after 6 hrs by TARDIS assay. The class given is cell-based.
Assay [11] can be described thus: Growth inhibition of mouse knock out topoisomerase 2-beta -/- cells after 4 hrs by colonogenic assay. The class given is functional.
Assay [12] addresses DNA topoisomerase 2-alpha (Homo sapiens) (UniProt P11388). Nature of the assay: Induction of human recombinant topoisomerase 2-DNA complexes in K562 cells assessed as integrated green fluorescence at 175 uM after 0.5 hrs by TARDIS assay. Format: cell-based.
The target in assay [13] is T1, DNA topoisomerase 1 (Homo sapiens). As to the kind of experiment: Inhibition of topoisomerase 1 assessed as reduction of camptothecin-induced topo 1-DNA complexes in K562 cells by measuring integrated fluorescence at 17 uM after 24 hrs by TARDIS assay. Format: cell-based.
The species entered for assay [14] is Mus musculus. Nature of the assay: Growth inhibition of mouse topoisomerase 2-beta -/- cells at 100 to 300 uM after 4 hrs by XTT assay. The class given is functional.
For assay [15], the target named is T1, DNA topoisomerase 1 (Homo sapiens). As to the kind of experiment: Induction of topoisomerase 1-DNA complexes in K562 cells assessed as integrated green fluorescence at 175 uM after 6 hrs by TARDIS assay. The class given is cell-based.
Assay [16] is described as follows: Growth inhibition of mouse topoisomerase 2-beta -/- cells at 300 uM after 4 hrs by colonogenic assay. The class given is functional. Further details: scale not given: the % may be the effect or the level left.
The subject of a further assay is K562. As to the kind of experiment: Growth inhibition of K562 cells by XTT assay after 5 days. The class given is functional, cell-based. The note with it: Homo sapiens, K562, 120 h.
Assay [17] concerns the target DNA topoisomerase 2-alpha (Homo sapiens) (UniProt P11388). As to the kind of experiment: Inhibition of human recombinant topoisomerase 2 assessed as reduction of etoposide-induced topo 2-DNA complexes in K562 cells by measuring integrated fluorescence at 175 uM after 24 hrs by TARDIS assay. The class given is cell-based.
Assay [18] concerns the target T1, DNA topoisomerase 1 (Homo sapiens). Nature of the assay: Induction of topoisomerase 1-DNA complexes in K562 cells assessed as integrated green fluorescence at 175 uM after 24 hrs by TARDIS assay. The class given is cell-based.
The target is the same in assay [19]. Nature of the assay: Induction of topoisomerase 1-DNA complexes in K562 cells assessed as integrated green fluorescence at 175 uM after 0.5 hrs by TARDIS assay. Format: cell-based.
Assay [20] has as its target DNA topoisomerase 2-alpha (Homo sapiens) (UniProt P11388). As to the kind of experiment: Induction of human recombinant topoisomerase 2-DNA complexes in K562 cells assessed as integrated green fluorescence at 175 uM after 24 hrs by TARDIS assay. Format: cell-based.
A short description of assay [21]: Survival of mouse topoisomerase 2-beta -/- cells at 100 uM after 4 hrs by colonogenic assay. The class given is functional.
The species named for assay [22] is Mus musculus. As to the kind of experiment: Growth inhibition of mouse topoisomerase 2-beta +/+ cells at 100 to 300 uM after 4 hrs by XTT assay. The class given is functional.
Assay [23] concerns the target T1, DNA topoisomerase 1 (Homo sapiens). As to the kind of experiment: Inhibition of topoisomerase 1 assessed as reduction of camptothecin-induced topo 1-DNA complexes in K562 cells by measuring integrated fluorescence at 175 uM after 24 hrs by TARDIS assay. Format: cell-based.
The target of assay [24] is DNA topoisomerase 2-alpha (Homo sapiens) (UniProt P11388). As to the kind of experiment: Inhibition of human recombinant topoisomerase 2 assessed as reduction of etoposide-induced topo 2-DNA complexes in K562 cells by measuring integrated fluorescence at 17 uM after 24 hrs by TARDIS assay. Format: cell-based.
Assay [25] shares this target. Nature of the assay: Induction of human recombinant topoisomerase 2-DNA complexes in K562 cells assessed as integrated green fluorescence at 175 uM after 2 hrs by TARDIS assay. The class given is cell-based.
Assay [26] addresses DNA topoisomerase 2-beta (Homo sapiens) (UniProt Q02880). As to the kind of experiment: Induction of human recombinant topoisomerase 2beta-DNA complex in K562 cells assessed as integrated fluorescence at 175 uM after 2 hrs by TARDIS assay. Format: cell-based.
The target in assay [27] is T1, DNA topoisomerase 1 (Homo sapiens). As to the kind of experiment: Induction of topoisomerase 1-DNA complexes in K562 cells assessed as integrated green fluorescence at 175 uM after 2 hrs by TARDIS assay. Format: cell-based.
Assay [28] in a line: Growth inhibition of mouse wild-type topoisomerase 2-beta +/+ cells after 4 hrs by colonogenic assay. Format: functional.
Assay [29] is described as follows: Survival of mouse wild-type topoisomerase 2beta +/+cells at 100 uM after 4 hrs by colonogenic assay. Format: functional.
Assay [30] concerns the target T1, DNA topoisomerase 1 (Homo sapiens). As to the kind of experiment: Induction of topoisomerase 1-DNA complexes in K562 cells assessed as integrated green fluorescence at 146 uM after 24 hrs by TARDIS assay. Format: cell-based.
The target is the same in assay [31]. Nature of the assay: Inhibition of topoisomerase 1 assessed as reduction of camptothecin-induced topo 1-DNA complexes in K562 cells by measuring integrated fluorescence at 146 uM after 24 hrs by TARDIS assay. Format: cell-based.
Assay [32] addresses DNA topoisomerase 2-alpha (Homo sapiens) (UniProt P11388). As to the kind of experiment: Induction of human recombinant topoisomerase 2-DNA complexes in K562 cells assessed as integrated green fluorescence at 146 uM after 0.5 hrs by TARDIS assay. The class given is cell-based.
For assay [33] the target is unchanged. As to the kind of experiment: Induction of human recombinant topoisomerase 2-DNA complexes in K562 cells assessed as integrated green fluorescence at 146 uM after 6 hrs by TARDIS assay. The class given is cell-based.
Assay [34] shares this target. As to the kind of experiment: Inhibition of human recombinant topoisomerase 2 assessed as reduction of etoposide-induced topo 2-DNA complexes in K562 cells by measuring integrated fluorescence at 14 uM after 24 hrs by TARDIS assay. Format: cell-based.
The target of assay [35] is T1, DNA topoisomerase 1 (Homo sapiens). As to the kind of experiment: Inhibition of topoisomerase 1 assessed as reduction of camptothecin-induced topo 1-DNA complexes in K562 cells by measuring integrated fluorescence at 14 uM after 24 hrs by TARDIS assay. Format: cell-based.
For assay [36] the target is unchanged. Nature of the assay: Induction of topoisomerase 1-DNA complexes in K562 cells assessed as integrated green fluorescence at 146 uM after 0.5 hrs by TARDIS assay. The class given is cell-based.
The target is the same in assay [37]. Nature of the assay: Induction of topoisomerase 1-DNA complexes in K562 cells assessed as integrated green fluorescence at 146 uM after 6 hrs by TARDIS assay. The class given is cell-based.
Assay [38] shares this target. Nature of the assay: Induction of topoisomerase 1-DNA complexes in K562 cells assessed as integrated green fluorescence at 146 uM after 2 hrs by TARDIS assay. The class given is cell-based.
The target in assay [39] is DNA topoisomerase 2-alpha (Homo sapiens) (UniProt P11388). Nature of the assay: Induction of human recombinant topoisomerase 2-DNA complexes in K562 cells assessed as integrated green fluorescence at 146 uM after 2 hrs by TARDIS assay. The class given is cell-based.
Assay [40] has the same target. Nature of the assay: Inhibition of human recombinant topoisomerase 2 assessed as reduction of etoposide-induced topo 2-DNA complexes in K562 cells by measuring integrated fluorescence at 146 uM after 24 hrs by TARDIS assay. Format: cell-based.
Assay [41] has the same target. Nature of the assay: Induction of human recombinant topoisomerase 2-DNA complexes in K562 cells assessed as integrated green fluorescence at 146 uM after 24 hrs by TARDIS assay. Format: cell-based.

Sequence of DNA topoisomerase 2-alpha (Homo sapiens) (P11388 whole entry): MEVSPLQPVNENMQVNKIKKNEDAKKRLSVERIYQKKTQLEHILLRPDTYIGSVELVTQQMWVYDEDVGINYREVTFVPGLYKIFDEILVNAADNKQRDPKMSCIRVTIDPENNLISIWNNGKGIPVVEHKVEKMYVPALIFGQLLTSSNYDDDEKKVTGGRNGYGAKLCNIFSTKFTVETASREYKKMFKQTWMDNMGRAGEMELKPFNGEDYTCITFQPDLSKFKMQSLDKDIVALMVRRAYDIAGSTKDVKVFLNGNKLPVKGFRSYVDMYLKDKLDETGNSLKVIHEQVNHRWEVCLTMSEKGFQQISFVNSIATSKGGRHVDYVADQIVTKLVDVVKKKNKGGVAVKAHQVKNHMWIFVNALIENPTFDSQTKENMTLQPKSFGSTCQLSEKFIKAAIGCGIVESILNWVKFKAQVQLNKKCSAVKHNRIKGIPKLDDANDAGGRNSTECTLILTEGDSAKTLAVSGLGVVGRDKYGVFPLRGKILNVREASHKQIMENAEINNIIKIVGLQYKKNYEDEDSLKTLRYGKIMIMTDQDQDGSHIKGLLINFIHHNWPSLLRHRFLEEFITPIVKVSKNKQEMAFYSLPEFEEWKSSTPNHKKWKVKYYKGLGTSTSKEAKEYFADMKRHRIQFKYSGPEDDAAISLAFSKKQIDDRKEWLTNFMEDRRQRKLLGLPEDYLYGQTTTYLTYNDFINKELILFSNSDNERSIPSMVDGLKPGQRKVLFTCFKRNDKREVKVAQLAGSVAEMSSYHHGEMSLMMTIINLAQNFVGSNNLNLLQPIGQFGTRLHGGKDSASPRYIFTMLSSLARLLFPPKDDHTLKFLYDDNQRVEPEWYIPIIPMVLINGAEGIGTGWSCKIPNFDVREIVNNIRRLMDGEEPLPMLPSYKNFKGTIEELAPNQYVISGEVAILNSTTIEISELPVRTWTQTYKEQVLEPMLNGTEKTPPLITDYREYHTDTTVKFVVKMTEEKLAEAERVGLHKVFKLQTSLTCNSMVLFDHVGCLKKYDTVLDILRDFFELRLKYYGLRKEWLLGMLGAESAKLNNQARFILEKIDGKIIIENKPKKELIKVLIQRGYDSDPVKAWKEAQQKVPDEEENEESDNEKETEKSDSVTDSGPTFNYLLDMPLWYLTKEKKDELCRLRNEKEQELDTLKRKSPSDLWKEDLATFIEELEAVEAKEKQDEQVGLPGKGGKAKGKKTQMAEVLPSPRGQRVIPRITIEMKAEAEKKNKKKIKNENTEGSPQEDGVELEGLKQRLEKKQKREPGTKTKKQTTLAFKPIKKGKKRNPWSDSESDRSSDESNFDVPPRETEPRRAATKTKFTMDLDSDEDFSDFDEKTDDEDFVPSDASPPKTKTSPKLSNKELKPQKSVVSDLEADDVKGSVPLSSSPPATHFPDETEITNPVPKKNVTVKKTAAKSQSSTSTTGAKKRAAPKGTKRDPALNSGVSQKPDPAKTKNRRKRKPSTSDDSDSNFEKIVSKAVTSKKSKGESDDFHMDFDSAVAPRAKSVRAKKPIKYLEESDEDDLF
Sequence of DNA topoisomerase 2-beta (Homo sapiens) (Q02880 whole entry): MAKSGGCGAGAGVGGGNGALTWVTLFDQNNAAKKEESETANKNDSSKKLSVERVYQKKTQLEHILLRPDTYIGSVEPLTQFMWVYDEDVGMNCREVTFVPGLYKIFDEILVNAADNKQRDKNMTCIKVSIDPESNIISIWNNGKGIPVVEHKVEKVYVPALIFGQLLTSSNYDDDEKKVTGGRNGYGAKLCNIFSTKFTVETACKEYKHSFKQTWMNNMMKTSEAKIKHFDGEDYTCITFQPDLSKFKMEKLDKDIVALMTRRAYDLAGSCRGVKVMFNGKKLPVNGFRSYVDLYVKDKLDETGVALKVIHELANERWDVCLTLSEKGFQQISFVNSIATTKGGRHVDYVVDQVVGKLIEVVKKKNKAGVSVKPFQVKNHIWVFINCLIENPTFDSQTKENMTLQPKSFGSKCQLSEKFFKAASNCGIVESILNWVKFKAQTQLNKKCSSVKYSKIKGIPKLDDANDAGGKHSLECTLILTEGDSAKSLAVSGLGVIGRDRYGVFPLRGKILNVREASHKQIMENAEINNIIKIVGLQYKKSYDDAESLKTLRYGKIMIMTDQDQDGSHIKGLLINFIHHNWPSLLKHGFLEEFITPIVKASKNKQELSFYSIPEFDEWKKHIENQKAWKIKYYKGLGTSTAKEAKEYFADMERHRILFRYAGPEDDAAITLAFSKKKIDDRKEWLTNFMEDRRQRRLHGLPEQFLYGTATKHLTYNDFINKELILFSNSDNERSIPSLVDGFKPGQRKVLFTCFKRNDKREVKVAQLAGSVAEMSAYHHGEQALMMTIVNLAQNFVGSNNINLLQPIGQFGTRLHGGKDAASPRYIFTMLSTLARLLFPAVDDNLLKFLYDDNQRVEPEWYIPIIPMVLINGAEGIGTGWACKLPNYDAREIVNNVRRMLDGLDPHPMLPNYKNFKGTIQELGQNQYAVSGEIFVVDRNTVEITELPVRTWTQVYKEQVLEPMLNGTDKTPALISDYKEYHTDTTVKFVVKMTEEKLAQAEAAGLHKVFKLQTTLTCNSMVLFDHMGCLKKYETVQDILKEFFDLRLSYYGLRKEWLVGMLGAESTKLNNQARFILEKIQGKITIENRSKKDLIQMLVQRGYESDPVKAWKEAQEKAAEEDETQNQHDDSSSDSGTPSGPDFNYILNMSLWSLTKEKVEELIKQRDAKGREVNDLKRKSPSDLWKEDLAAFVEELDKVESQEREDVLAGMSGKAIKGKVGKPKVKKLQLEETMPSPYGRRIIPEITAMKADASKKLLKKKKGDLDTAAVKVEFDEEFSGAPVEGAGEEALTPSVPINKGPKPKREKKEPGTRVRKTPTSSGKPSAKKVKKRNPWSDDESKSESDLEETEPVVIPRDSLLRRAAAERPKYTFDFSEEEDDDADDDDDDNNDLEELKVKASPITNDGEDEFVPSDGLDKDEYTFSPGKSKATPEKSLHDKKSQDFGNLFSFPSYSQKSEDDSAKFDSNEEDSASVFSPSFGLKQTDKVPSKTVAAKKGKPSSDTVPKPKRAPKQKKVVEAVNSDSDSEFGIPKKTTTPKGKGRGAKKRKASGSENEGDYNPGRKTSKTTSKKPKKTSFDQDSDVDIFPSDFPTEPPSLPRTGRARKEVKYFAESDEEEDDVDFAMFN

Take `CC[C@@]1(O)C(=O)OCc2c1cc1n(c2=O)Cc2cc3ccccc3nc2-1`: the Fluorescence intensity in assay [1] amounted to 2.51; in [2] it was 1.58; in [3], 11.4; in assay [4], 1.04.

In the case of `COc1cc([C@@H]2c3cc4c(cc3[C@@H](O[C@@H]3O[C@@H]5CO[C@@H](C)O[C@H]5[C@H](O)[C@H]3O)[C@H]3COC(=O)[C@H]23)OCO4)cc(OC)c1O`, the Fluorescence intensity in assay [5] was determined as 49.4; in assay [6], 20.9; in assay [7] it was 23.4; in assay [8], 3940; in [9], 13.2.

Regarding `O=c1c(-c2ccc(O)cc2)coc2cc(O)cc(O)c12` [GENISTEIN], the Fluorescence intensity in [10] amounted to 7.03; in [12], 7.03; in [13], 112%; in assay [15], 0.44; in assay [17], 67%; in [18], 0.18. The Fluorescence intensity in assay [19] stood at 0.96; in [20], 12.6; in assay [23] it was 148%; in assay [24], 95%; in assay [25], 20.4; in assay [26], 12700. For the same compound, the Fluorescence intensity in [27] stood at 0.44. Besides, the figures for the IC50 (in [11]; in the assay with K562; in assay [28]) were 300 µM, 17.6 µM and 47 µM, respectively. In the assay listed under Mus musculus [14], the outcome was inactive. Also, the figures for the Activity in [16], in assay [21] and in assay [29] were 50%, 50% and 0%, respectively. Besides, in the assay listed under Mus musculus [22], the outcome was Active.

As to `O=c1cc(-c2ccc(O)c(O)c2)oc2cc(O)cc(O)c12` [LUTEOLIN], the Fluorescence intensity in assay [30] is 0.19; in [31], 52%; in [32], 3.17; in assay [33] it was 7.39; in assay [34] it was 133%; in assay [35], 99%. Further, the Fluorescence intensity worked out at 0.49 in assay [36], 0.51 in [37], 85% in assay [40] and 5.05 in assay [41]. The midpoint of inhibition with K562, the IC50, lay at 14.7 µM. In addition, the Activity in assay [38] turned out to be 0.28; in assay [39] it was 4.08.
